Results: patent publication US20230111914A1, “SYNTHETIC TRITERPENOIDS WITH NITROGEN-BASED SUBSTITUENTS AT C-17 AND METHODS OF USE THEREOF” (REATA PHARMACEUTICALS, INC., priority 2019, published 2023)
Values joined by “and” are separate entries in the source; they are usually repeats but may differ in a detail not shown here. Identical values can stand only once. Marks after values point to notes of the source that are not given here.

Assays:
[1] = system: AREc32 reporter cell line (luciferase reporter under eight copies of the rat GSTA2 ARE sequence); test: AREc32 luciferase reporter activation; type: cell-based, human; settings: for EC (2-fold): Homo sapiens, Arec32, concentration that increases the luminescence signal 2-fold above vehicle, 19 h treatment, read-out: AREc32 EC2X (Mean ± SD)
[2] = system: IFNγ-induced NO production in RAW 264.7 cells; test: Nitric oxide suppression assay (IFNγ-induced NO production, Griess nitrite readout); type: cell-based, mouse; settings: for IC50: Mus musculus, RAW264.7, RAW 264.7 cells, 2 h pretreatment, 20 ng/mL interferon gamma 24 h, average of trials per footnote, read-out: NO IC50

| SMILES | AREc32 EC2X Relative to RTA 402 (Mean ± SD) [1] | EC (2-fold) [1] | NO IC50 Rel. to RTA 402 [2] | IC50 [2] | times more active (NO IC50) than 63183 relative to RTA 402 [2] | AREc32 Relative to CC in Same Experiment (Mean ± SD) ([1]; comparison compound CC4, average of ratios from three replicate experiments) | times more active (NO IC50) than 63189 relative to RTA 402 [2] |
| --- | --- | --- | --- | --- | --- | --- | --- |
| CC1(C)CC[C@]2(CN3CCNC3=O)CC[C@]3(C)[C@H](C(=O)C=C4[C@@]5(C)C=C(C#N)C(=O)C(C)(C)[C@@H]5CC[C@]43C)[C@@H]2C1 [Compound T14] | 0.4^e fold | 0.00437 µM | 0.51 ± 0.09^e fold | 0.89 ± 0.08 nM | – | – | – |
| CN1CCN(C[C@]23CCC(C)(C)C[C@H]2[C@H]2C(=O)C=C4[C@@]5(C)C=C(C#N)C(=O)C(C)(C)[C@@H]5CC[C@@]4(C)[C@]2(C)CC3)C1=O [Compound T15] | 0.5^e fold | 0.00607 µM | 0.64 ± 0.26^d fold | 1.18 ± 0.5 nM | – | – | – |
| C=CC(=O)NC[C@]12CCC(C)(C)C[C@H]1[C@H]1C(=O)C=C3[C@@]4(C)C=C(C#N)C(=O)C(C)(C)[C@@H]4CC[C@@]3(C)[C@]1(C)CC2 [Compound T16] | 0.2 ± 0.05^f fold | 0.002 ± 0.00018 µM | 0.21 fold and 0.21 ± 0.05^d fold | 0.37 nM | more than 6 times | – | – |
| Cc1cc(C)n(C[C@]23CCC(C)(C)C[C@H]2[C@H]2C(=O)C=C4[C@@]5(C)C=C(C#N)C(=O)C(C)(C)[C@@H]5CC[C@@]4(C)[C@]2(C)CC3)n1 [Compound T22] | 3.7^e fold | 0.0445 µM | 5.29 ± 1.29^d fold | 9.18 ± 1.72 nM | – | – | – |
| CC1(C)CC[C@]2(CN3CC4(COC4)C3)CC[C@]3(C)[C@H](C(=O)C=C4[C@@]5(C)C=C(C#N)C(=O)C(C)(C)[C@@H]5CC[C@]43C)[C@@H]2C1 [Compound T23] | 1.9^e fold | 0.0185 µM | 2.01 ± 0.53^e fold | 4.16 ± 1.19 nM | – | – | – |
| CC1(C)CC[C@]2(N3CCCC3=O)CC[C@]3(C)[C@H](C(=O)C=C4[C@@]5(C)C=C(C#N)C(=O)C(C)(C)[C@@H]5CC[C@]43C)[C@@H]2C1 [Compound T24] | 3.8^e fold | 0.0379 µM | 2.17 ± 0.72^e fold | 3.6 ± 0.08 nM | – | – | – |
| CC1(C)CC[C@]2(CN3CCC3)CC[C@]3(C)[C@H](C(=O)C=C4[C@@]5(C)C=C(C#N)C(=O)C(C)(C)[C@@H]5CC[C@]43C)[C@@H]2C1 [Compound T25] | 1.5^e fold | 0.022 µM | 1.21 ± 0.45^e fold | 2.5 ± 0.92 nM | – | – | – |
| CC1(C)CC[C@]2(CN3CC(F)C3)CC[C@]3(C)[C@H](C(=O)C=C4[C@@]5(C)C=C(C#N)C(=O)C(C)(C)[C@@H]5CC[C@]43C)[C@@H]2C1 [Compound T26] | 1.6^e fold | 0.0236 µM | 2.73 ± 1.01^e fold | 5.61 ± 1.84 nM | – | – | – |
| CC1(C)CC[C@]2(CN3CC(F)(F)C3)CC[C@]3(C)[C@H](C(=O)C=C4[C@@]5(C)C=C(C#N)C(=O)C(C)(C)[C@@H]5CC[C@]43C)[C@@H]2C1 [Compound T27] | 1.8^e fold | 0.0266 µM | 8.68 ± 2.12^e fold | 17.8 ± 1.79 nM | – | – | – |
| CC1(C)CC[C@]2(CN3CC(O)C3)CC[C@]3(C)[C@H](C(=O)C=C4[C@@]5(C)C=C(C#N)C(=O)C(C)(C)[C@@H]5CC[C@]43C)[C@@H]2C1 [Compound T28] | 0.9 ± 0.12^a fold | 0.0139 ± 0.00157 µM | 1.09 ± 0.16^e fold | 2.83 ± 0.92 nM | – | – | – |
| CC1(C)CC[C@]2(CN3CC(=O)C3)CC[C@]3(C)[C@H](C(=O)C=C4[C@@]5(C)C=C(C#N)C(=O)C(C)(C)[C@@H]5CC[C@]43C)[C@@H]2C1 [Compound T29] | 1.2^e fold | 0.0133 µM | 1.49 ± 0.30^d fold | 6.09 ± 1.46 nM | – | – | – |
| CN1CCN([C@]23CCC(C)(C)C[C@H]2[C@H]2C(=O)C=C4[C@@]5(C)C=C(C#N)C(=O)C(C)(C)[C@@H]5CC[C@@]4(C)[C@]2(C)CC3)C1=O [Compound T31] | 4.3^e fold | 0.0455 µM | 3.13 ± 0.36^d fold | 12.6 ± 1.65 nM | – | – | – |
| CC1(C)CC[C@]2(n3cccn3)CC[C@]3(C)[C@H](C(=O)C=C4[C@@]5(C)C=C(C#N)C(=O)C(C)(C)[C@@H]5CC[C@]43C)[C@@H]2C1 [Compound T32] | 2.8 ± 0.62^f fold | 0.0323 ± 0.00139 µM | 2.58 ± 0.60^e fold | 4.89 ± 1.42 nM | – | – | – |
| CC1(C)CC[C@]2(N3CCOC3=O)CC[C@]3(C)[C@H](C(=O)C=C4[C@@]5(C)C=C(C#N)C(=O)C(C)(C)[C@@H]5CC[C@]43C)[C@@H]2C1 [Compound T34] | 2.2^e fold | 0.0236 µM | 1.23 ± 0.23^e fold | 2.23 ± 0.57 nM | – | – | – |
| CC1(C)CC[C@]2(N3CCC3=O)CC[C@]3(C)[C@H](C(=O)C=C4[C@@]5(C)C=C(C#N)C(=O)C(C)(C)[C@@H]5CC[C@]43C)[C@@H]2C1 [Compound T38] | 2.1^e fold | 0.0361 µM | 1.69 ± 0.84^e fold | 4.32 ± 3.51 nM | – | – | – |
| CC1(C)CC[C@]2(n3cnnc3)CC[C@]3(C)[C@H](C(=O)C=C4[C@@]5(C)C=C(C#N)C(=O)C(C)(C)[C@@H]5CC[C@]43C)[C@@H]2C1 [Compound T39] | 9.8 ± 1.1^a fold | 0.0943 ± 0.00426 µM | 42.82 ± 14.24^e fold | 84.5 ± 18.9 nM | – | – | – |
| CC1(C)CC[C@]2(n3ccoc3=O)CC[C@]3(C)[C@H](C(=O)C=C4[C@@]5(C)C=C(C#N)C(=O)C(C)(C)[C@@H]5CC[C@]43C)[C@@H]2C1 [Compound T40] | 1.8^e fold | 0.0196 µM | 1.37 ± 0.18^d fold | 5.56 ± 0.72 nM | – | – | – |
| CC1(C)CC[C@]2(n3cc(CO)nn3)CC[C@]3(C)[C@H](C(=O)C=C4[C@@]5(C)C=C(C#N)C(=O)C(C)(C)[C@@H]5CC[C@]43C)[C@@H]2C1 [Compound T42] | 1.3 ± 0.34^f fold | 0.0148 ± 0.00277 µM | 2.97 ± 0.47^d fold | 12.4 ± 3.92 nM | – | 0.490 ± 0.057 | – |
| Cn1ccn([C@]23CCC(C)(C)C[C@H]2[C@H]2C(=O)C=C4[C@@]5(C)C=C(C#N)C(=O)C(C)(C)[C@@H]5CC[C@@]4(C)[C@]2(C)CC3)c1=O [Compound T46] | 3.0^e fold | 0.0316 µM | 2.62 ± 0.10^d fold | 10.7 ± 1.35 nM | – | – | – |
| CC1(C)CC[C@]2(CN3CCOC3)CC[C@]3(C)[C@H](C(=O)C=C4[C@@]5(C)C=C(C#N)C(=O)C(C)(C)[C@@H]5CC[C@]43C)[C@@H]2C1 [Compound T47] | 8.6^e fold | 0.122 µM | 7.54 ± 2.47^d fold | 17.3 ± 8.55 nM | – | – | – |
| CC1(C)CC[C@]2(Cn3cnnc3)CC[C@]3(C)[C@H](C(=O)C=C4[C@@]5(C)C=C(C#N)C(=O)C(C)(C)[C@@H]5CC[C@]43C)[C@@H]2C1 [Compound T49] | 4.5^e fold | 0.0389 µM | 13.72 ± 3.47^e fold | 26.9 ± 10.5 nM | – | – | – |
| CC1(C)CC[C@]2(CN3NCCC3=O)CC[C@]3(C)[C@H](C(=O)C=C4[C@@]5(C)C=C(C#N)C(=O)C(C)(C)[C@@H]5CC[C@]43C)[C@@H]2C1 [Compound T51] | 1.1^e fold | 0.0117 µM | 2.04 ± 0.73^d fold | 8.55 ± 3.65 nM | – | – | – |
| [2H]C([2H])([2H])C(=O)NC[C@]12CCC(C)(C)C[C@H]1[C@H]1C(=O)C=C3[C@@]4(C)C=C(C#N)C(=O)C(C)(C)[C@@H]4CC[C@@]3(C)[C@]1(C)CC2 [Compound T52] | 0.3^e fold | 0.003 µM | 0.28 ± 0.13^e fold | 0.52 ± 0.24 nM | – | – | – |
| CCC(=O)NC[C@]12CCC(C)(C)C[C@H]1[C@H]1C(=O)C=C3[C@@]4(C)C=C(C#N)C(=O)C(C)(C)[C@@H]4CC[C@@]3(C)[C@]1(C)CC2 [Compound T53] | 0.2^e fold | 0.0024 µM | 0.21 fold and 0.21 ± 0.05^e fold | 0.38 nM | – | – | more than 19 times |
